Experimental data reported in PubChem BioAssay AID624258 (Broad Institute, 2012).
Active and inactive are the calls of the source. No rule for the calls is given here.

System: S. cerevisiae SKN7-toxicity growth rescue, plate reader
Assay: Yeast SKN7 toxicity growth rescue counterscreen, Saccharomyces cerevisiae, plate reader, dose confirmatory (AID 624258);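 also: growth read after three days of incubation at 30 °C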

| SMILES | AC40 |
| --- | --- |
| Cc1ccc(COc2ccc(Br)cc2/C=N/O)cc1 | 1.27 µM |
| O=Cc1cc(N=Nc2ccccc2Cl)ccc1O | 0.446 µM |
| CC1(C(=O)OCC(=O)Nc2ccc3ccccc3c2)CC1(Cl)Cl (configuration not stated) | 17.6 µM |
| O=C(C=Cc1cccc(O)c1)c1ccccc1O | 1.43 µM |
| CSC1=NC(=O)/C(=C/c2ccc(SC)cc2)S1 | 2.61 µM |
| Cc1csc(NC(=S)Nc2cccc(Cl)c2)n1 | 11.6 µM |
| N=c1c2c(-c3ccccc3)c(-c3ccccc3)n(Cc3ccco3)c2ncn1CCCn1ccnc1 | 2.92 µM |
| Cc1ccc(C)c(NS(=O)(=O)c2cc(C(=O)N3CCc4ccccc4C3)ccc2Cl)c1 | 6.58 µM |
| COc1cccc(/C=N/NC(=O)c2cc(-c3cccn3C)n[nH]2)c1O | 5.62 µM |
| O=C(CSc1ccc(-c2ccccn2)nn1)N1CCc2ccccc21 | 10.2 µM |
| Cc1ccc(NC2=C(NC(=O)c3ccccc3)C(=O)c3ccccc3C2=O)cc1Cl | 4.15 µM |
| O=C(CCCNC(=O)c1ccc(Cl)cc1)OCc1cccc(Br)c1 | > 19.5 µM (inactive) |
| CCCCOc1ccc2c(c1)C(=O)c1cc(O)ccc1-2 | 1.93 µM |
| COc1ccc2nc(NN=C(C)c3ccccn3)cc(C)c2c1 | 3.23 µM |
| CCCCNC1=CC(=O)C(=O)c2ccccc21 | 17.5 µM |
| CC(=O)Nc1ccc2c(c1)Cc1cc(N3C(=O)C=CC3=O)ccc1-2 | 0.236 µM |
| Cc1nc2c(nc1C)C(=O)c1ccccc1C2=O | 13 µM |
| CCOC(=O)/C(=C/c1ccc(OC(=O)c2ccccc2)cc1)C(C)=O | 1.83 µM |
| Cc1ccc(S(=O)(=O)N2CCOC23CCN(C(=O)c2cc(Cl)ccc2Cl)CC3)cc1 | 7.25 µM |
| O=c1[nH]c(=O)n(C2OC(CO)C(O)C2O)cc1F (configuration not stated) | 12.9 µM |
| O=C1C(=C(I)I)c2ccccc2-c2ccccc21 | 2.07 µM |
| O=c1c(Cl)c(Cl)cnn1Cc1nnc(-c2ccc(Cl)cc2)o1 | 7.97 µM |
| COC(=O)c1ccc(SC2CCCCC2)c([N+](=O)[O-])c1 | 1.47 µM |
| O=C1C(Br)=Cc2cccc3cccc1c23 | 5.81 µM |

| SMILES | AC40 |
| --- | --- |
| Cc1ccc(N(CN2C(=O)c3ccccc3C2=O)C(=O)c2ccc([N+](=O)[O-])cc2[N+](=O)[O-])cc1 | 7.16 µM |
| CO/N=C/c1ccc(Oc2ccc([N+](=O)[O-])cc2[N+](=O)[O-])c(OC)c1 | 18.5 µM |
| Cc1nn(-c2nnc(NCc3ccccc3)nn2)c(C)c1Br | 6.94 µM |
| CC(C)n1cnc2c(NCc3ccccc3)cc(Cc3ccc(F)cc3)cc21 | 3.4 µM |
| O=S(=O)(CCSc1ccccn1)c1nc2ccccc2s1 | 6.53 µM |
| c1cncc(-c2nnc(-c3cccnc3)nn2)c1 | 8.28 µM |
| COc1cccc(C(=O)N/N=C(/c2ccccc2)c2ccccn2)c1 | 3.84 µM |
| c1ccc(Cn2cc(-c3cccnc3)cn2)cc1 | 1.46 µM |
| O=C(NC1=CC(=O)c2ccccc2C1=O)c1ccccc1 | 3.18 µM |
| N/C(Cc1ccc(Cl)cc1Cl)=N\OC(=O)c1ccccc1F | 0.718 µM |
| CNC1=C(N(C(C)=O)c2ccc(Br)cc2)C(=O)c2ccccc2C1=O | 15.8 µM |
| CCOc1ccc(-n2c(O)c(/C=N/NC(=O)C3COc4ccccc4O3)c3ccccc3c2=O)cc1 (configuration not stated) | 2.18 µM |
| Cc1cc(-c2ccccc2)n(-c2cc(N/N=C/c3ccccc3O)ncn2)n1 | > 19.5 µM (inactive) |
| COc1cc(OC)c(-c2c3cc(O)c(=O)cc-3oc3cc(O)c(O)cc23)cc1OC | 1.57 µM |
| CCCCCCCN1N=C(C)C(C(=O)c2ccccc2)C1=O (configuration not stated) | 0.764 µM |
| Cc1nn(CCC(N)=S)c2nc(-c3cccs3)cc(C(F)(F)F)c12 | 14.1 µM |
| CCOC(=O)c1c(C)oc2c1C(=O)c1ccccc1C2=O | 2.28 µM |
| O=C(CSc1ccc(-c2ccccn2)nn1)c1ccccc1 | 1.22 µM |
| CCCCCCCCCCn1c2c(c(=N)c3c1CCC3)CCC2 | > 6.8 µM (inactive) |
| COC1=CC(=O)c2c(ccc3ncnc(N)c23)C1=O | 10.1 µM |
| COc1ccc(C(=O)NC(=S)NNC(=O)CCc2ccccc2)cc1 | 1.42 µM |
| Cc1ccc(CCNc2ncnc(Cl)c2N)cc1 | 3.87 µM |
| COc1ccc(C(c2c(O)ccc3ccccc23)N2CCOCC2)c(OC)c1 (configuration not stated) | 2.35 µM |
| Cc1ccc(CN=Cc2[nH]c3ccc(Br)c(Cl)c3c2O)cc1 | 9.03 µM |

| SMILES | AC40 |
| --- | --- |
| O=C1/C(=C/c2cccs2)SC(=S)N1NS(=O)(=O)c1ccccc1 | 3.71 µM |
| COC1=C(OC)C(=O)C(Sc2ccc3ccccc3c2)=CC1=O | 6.52 µM |
| COc1ccc(-c2cc(C(=O)N3CCN(c4ccccc4F)CC3)c3ccccc3n2)c(OC)c1 | > 19.5 µM (inactive) |
| Cc1cccc2sc(NNC(=O)c3ccc(S(=O)(=O)N4CC(C)CC(C)C4)cc3)nc12 (configuration not stated) | 0.736 µM |
| Nc1[nH]c(=O)ncc1F | 1.83 µM |
| O=C(Nc1cccc(-c2nc3ccccc3s2)c1)c1cccs1 | 1.34 µM |
| O=NN(CCc1ccncc1)c1ccc(OCc2ccccc2)cc1 | 2.98 µM |
| Cc1ccccc1NC(=O)CSc1ccc(-c2ccccn2)nn1 | 7.17 µM |
| Cc1nn(CCO)c(N)c1C1(O)C(=O)Nc2c(Cl)cc(Cl)cc21 (configuration not stated) | 18.5 µM |
| O=C1C=C(c2ccccc2)C(=O)N1Nc1ccccc1 | 1.15 µM |
| O=C(c1ccco1)N1CCN(C(=O)c2ccccc2OCc2ccc(Cl)cc2)CC1 | 19.1 µM |
| CC(C)(C)c1ccc(Oc2ccc(N)cc2)cc1 | 1.95 µM |
| COc1cc2c(cc1/C=C/[N+](=O)[O-])OCO2 | 6.54 µM |
| O=C(CSc1nnc(-c2ccccc2O)n1Cc1ccccc1)NNC(=O)c1ccccc1O | 6.84 µM |
| CC1=CC(=O)C=C(C)C1=NOS(=O)(=O)c1ccccc1 | 0.454 µM |
| O=C(Nc1ccccc1N1CCOCC1)c1cc2c(s1)CCCCC2 | 7.06 µM |
| O=S(=O)(CCSc1nc2ccccc2o1)c1nc2ccccc2s1 | 3.62 µM |
| O=S(=O)(Nc1nc2ccccc2nc1N1CCN(c2ccccn2)CC1)c1ccc(Cl)cc1 | 0.818 µM |
| CNC(=S)Nc1ccc(C23CC4CC(CC(C4)C2)C3)cc1 | 2.47 µM |
| CC1CC(C)CC(C)C(O)C(C#N)=CC=CCC(C2CCCC2C(=O)O)OC(=O)CC(O)C(C)C1 (configuration not stated) | 10.3 µM |
| COc1cc(/C=C2\SC(=S)N(NS(=O)(=O)c3ccc(C)cc3)C2=O)ccc1O | 1.64 µM |
| Cc1ccc(-c2nn(C(C)(C)C)c3ncnc(N)c23)cc1 | 9.29 µM |
| O=C(Cc1ccccc1F)Nc1nc(-c2ccc(F)c(F)c2)cs1 | 2.54 µM |
| O=C(C1=C(Nc2ccccc2)c2ccccc2S(=O)(=O)N1)c1ccccc1 | 2.51 µM |

| SMILES | AC40 |
| --- | --- |
| N#C/C(=C\c1cccc(Oc2ccccc2)c1)C(=O)N1CCOCC1 | 8.47 µM |
| CCOC(=O)N1CCN(S(=O)(=O)c2ccc(C(=O)NNc3nc4ccc(Cl)cc4s3)cc2)CC1 | 6.89 µM |
| O=[N+]([O-])c1cccc(-c2cc(-c3cc(Br)ccc3O)[nH]n2)c1 | 8.39 µM |
| O=C(O)c1ccccc1NS(=O)(=O)c1cccc(-n2sc3ccccc3c2=O)c1 | 4.77 µM |
| Cc1ccc(C(=O)Sc2cccccc2=O)cc1 | 0.322 µM |
| N#C/C(=C\c1cccnc1)c1ccc([N+](=O)[O-])cc1 | 16.7 µM |
| O=C(NCCN1CCN(c2cccc(Cl)c2)CC1)c1ccc(CSc2nc3ccncc3[nH]2)cc1 | 8.35 µM |
| CC(=O)NC(c1ccc(Cl)cc1Cl)c1ccc2cccnc2c1O (configuration not stated) | 1.38 µM |
| Cc1c2cnccc2c(C)c2c1oc1ccccc12 | 2.99 µM |
| O=C(Nc1ccc(Cl)c(Cl)c1)C1CCCCC1 | 0.565 µM |
| Cc1nc(Sc2ccc(Cl)cc2)c(C#N)c(C)c1[N+](=O)[O-] | 0.937 µM |
| Cc1ccc(CN2CC(C(=O)N(Cc3nnc(-c4ccccc4Cl)o3)C3CC3)CC2=O)cc1 (configuration not stated) | 8.15 µM |
| COc1ccc(-c2csc(NC(=O)c3ccccc3F)c2C(=O)O)cc1 | 0.644 µM |
| O=C(O/N=C(\c1ccccc1)c1ccncc1)c1ccccc1Cl | 9.26 µM |
| COc1ccc(CNC(=O)c2c(C)oc3c2C(=O)c2ccccc2C3=O)cc1 | 8.26 µM |
| COc1cc(NC(=O)CSc2ccc(-c3ccccn3)nn2)cc(OC)c1 | 0.894 µM |
| CC(=O)c1ccc(Sc2ccccc2)c([N+](=O)[O-])c1 | > 19.5 µM (inactive) |
| c1ccc(Nc2cccc(Nc3ccccc3)c2)cc1 | 0.766 µM |
| CCc1ccc(NC(=O)CSc2ccc(-c3ccccn3)nn2)cc1 | 0.968 µM |
| O=C(N/N=C/c1sc(N2CCOCC2)nc1-c1ccccc1)c1ccccc1O | 3.04 µM |
| COc1ccc(-c2sc3ccccc3c2C#Cc2cncn2C)cc1 | 1.24 µM |
| CC(C)CN(C(=O)c1cccc(S(=O)(=O)N2CCN(Cc3ccccc3)CC2)c1)C1CCS(=O)(=O)C1 (configuration not stated) | 8.01 µM |
| CCOC(=O)c1cccc2c1-c1ccccc1/C2=N/O | 1.91 µM |
| Cc1ccc2oc(-c3ccccc3)c(C(=O)O)c(=O)c2c1 | 1.26 µM |

| SMILES | AC40 |
| --- | --- |
| O=C(O)c1ccc(C(=O)c2cc([N+](=O)[O-])cc([N+](=O)[O-])c2)cc1 | 15.7 µM |
| COc1ccc(N=NC2=C(O)CC(C)(C)CC2=O)c(OC)c1 | 0.306 µM |
| O=C(O)c1cccc(NN=C2c3ccccc3-c3ccccc32)c1 | 3.11 µM |
| CC/C(=N\Nc1ccc([N+](=O)[O-])cc1)c1ccccc1 | 1.62 µM |
| CC(C)(C)C(=O)C(Oc1ccc(Cl)cc1)n1cncn1 (configuration not stated) | 2.02 µM |
| COc1ccc(NC(=O)/C(Cl)=C(/Cl)S(=O)(=O)Cc2ccc(C)cc2)cn1 | 1.24 µM |
| O=C1c2ccccc2C2=Nc3ccccc3SC(c3cccc(F)c3)C12 (configuration not stated) | 1.24 µM |
| Cc1ccc(S(=O)(=O)N2[C@@H](c3ccc(Cl)cc3)C(C(=O)O)=CC[C@H]2c2ccc(Cl)c(Cl)c2)cc1 | 3.31 µM |
| O=C1c2ccccc2NC(c2ccc(Cl)cc2Cl)N1O (configuration not stated) | 7.55 µM |
| CC(C)(c1cc(Br)c(O)c(Br)c1)c1cc(Br)c(O)c(Br)c1 | 1.26 µM |
| COc1ccc(-c2cc(C(=O)NNC(=S)NC(=O)c3c(-c4ccccc4)noc3C)[nH]n2)cc1 | 2.31 µM |
| Fc1ccc(CCNC(=S)Nc2ccc(F)c(Cl)c2)cc1 | 3.7 µM |
| O=C(COc1ccc(Cl)cc1)NCCSCc1cccc(Cl)c1 | 3.16 µM |
| O/N=C/c1cc(Br)ccc1OCc1cccc(F)c1 | 5.83 µM |
| CN1CCN(C2CCN(c3ccc(Nc4nnc(Cl)c(Nc5ccccc5S(C)(=O)=O)n4)c(OC(CF)CF)c3)CC2)CC1 | 15.1 µM |
| Cc1cccc(C)c1NS(=O)(=O)c1ccc(-c2cnc(C3CC3)o2)cc1 | 7.85 µM |
| S=c1[nH]nc(-c2ccco2)n1/N=C/C(Cl)=C/c1ccccc1 | 10.8 µM |
| CCOC(=O)c1c(-c2ccccc2)oc2ccc(O)cc12 | 10.4 µM |
| Oc1c(C(Nc2cccc(C(F)(F)F)c2)c2cccnc2)ccc2cccnc12 (configuration not stated) | 2.73 µM |
| CC1=CC(=O)C(C(C)C)=C/C1=N/OS(=O)(=O)c1ccccc1 | 0.11 µM |
| O=[N+]([O-])c1cc(Cl)ccc1Sc1ccccn1 | 17.3 µM |
